Laboratory results from ChEMBL document CHEMBL4118162, “Discovery of novel anti-tuberculosis agents with pyrrolo[1,2-a]quinoxaline-based scaffold” (Bioorg Med Chem Lett, 2018).
Converted amounts (≈) assume the structure as drawn.

What was measured:
[1] = biological target: T1, Enoyl-[acyl-carrier-protein] reductase [NADH] (Mycobacterium tuberculosis) (UniProt P9WGR1); experiment: Inhibition of Mycobacterium tuberculosis InhA at 100 uM using trans-2-decenoyl-N-acetylcysteamine as substrate preincubated for 1 hr followed by substrate addition measured every 30 secs for 5 mins
T1 sequence (whole entry): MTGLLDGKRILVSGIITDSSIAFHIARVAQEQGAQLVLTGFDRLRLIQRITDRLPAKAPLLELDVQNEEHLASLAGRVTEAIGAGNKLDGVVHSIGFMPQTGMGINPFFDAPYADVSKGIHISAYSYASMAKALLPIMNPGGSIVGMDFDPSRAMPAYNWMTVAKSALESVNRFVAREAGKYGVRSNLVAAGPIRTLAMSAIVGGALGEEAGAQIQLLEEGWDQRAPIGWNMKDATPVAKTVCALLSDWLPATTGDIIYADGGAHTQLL

[2] = system: Mycobacterium tuberculosis; experiment: Antitubercular activity against Mycobacterium tuberculosis H37Ra assessed as as inhibition of bacterial growth at 10 ug/ml up to 7 days; format: functional; conditions: 168 h, read-out: GI
[3] = system: Mycobacterium tuberculosis; experiment: Antitubercular activity against Mycobacterium tuberculosis H37Ra up to 7 days; format: functional; conditions: 168 h
[4] = Solubility of the compound in water at 500 ug/mL by HPLC method; format: physicochemical
[5] = Cytotoxicity against human LO2 cells assessed as growth inhibition up to 20 uM after 48 hrs by MTT assay; format: cell-based, L02; conditions: read-out: GI
[6] = Cytotoxicity against human MDA231 cells assessed as growth inhibition up to 20 uM after 48 hrs by MTT assay; format: cell-based, MDA-MB-231; conditions: read-out: GI
[7] = Cytotoxicity against human SKOV3 cells assessed as growth inhibition up to 20 uM after 48 hrs by MTT assay; format: cell-based, SK-OV-3; conditions: read-out: GI
[8] = biological target: T2, Enoyl-[acyl-carrier-protein] reductase [NADH] (Mycobacterium tuberculosis, UniProt P9WGR1); experiment: Inhibition of Mycobacterium tuberculosis InhA using trans-2-decenoyl-N-acetylcysteamine as substrate preincubated for 1 hr followed by substrate addition measured every 30 secs for 5 mins
T2 sequence (P9WGR1 whole entry): T1 sequence (whole entry)

[9] = Effective permeability of the compound in PBS/EtOH at 50 ug/mL after 18 hrs by PAMPA-BBB assay
[10] = Solubility of the compound in water at 180 uM by HPLC method; format: physicochemical

COc1ccc(CCNCc2cc(-c3ccccc3F)n3c2cnc2ccccc23)cc1OC
inhibition [1]: 6.28% | inhibition of growth at 10 µg/mL [2]: ≥ 90% | MIC90 [3]: 10 to 50 µg/mL (≈ 22 to 110 µM) | solubility [4]: 50.7 µg/mL (≈ 111 µM)

CCCNCc1cc(-c2ccccc2F)n2c1cnc1ccccc12
inhibition [1]: 5.21% | inhibition of growth at 10 µg/mL [2]: ≥ 90% | MIC90 [3]: 10 to 50 µg/mL (≈ 30 to 150 µM) | solubility [4]: 73.3 µg/mL (≈ 220 µM)

Fc1ccccc1-c1cc(CNCc2ccccc2)c2cnc3cc(Br)ccc3n12
inhibition at 48 h [5]: 5.38% | inhibition at 48 h [6]: 32.1% | inhibition [1]: 62% | inhibition of growth at 10 µg/mL [2]: ≥ 90% | MIC90 [3]: 10 µg/mL (≈ 21.7 µM) | inhibition at 48 h [7]: 13.3% | IC50 [8]: 54 µM | solubility [4]: < 2.5 µg/mL

Fc1ccccc1-c1cc(CNCc2ccccc2)c2cnc3cc(Cl)ccc3n12
inhibition at 48 h [5]: 43.7% | inhibition at 48 h [6]: 27.8% | inhibition [1]: 37% | inhibition of growth at 10 µg/mL [2]: ≥ 90% | MIC90 [3]: 5 µg/mL (≈ 12 µM) | inhibition at 48 h [7]: 19.4% | solubility [4]: < 2.5 µg/mL

CCCCNCc1cc(-c2ccccc2F)n2c1cnc1cc(F)ccc12
inhibition [1]: 7.88% | inhibition of growth at 10 µg/mL [2]: ≥ 90% | MIC90 [3]: 25 µg/mL (≈ 68.4 µM) | solubility [4]: 8.61 µg/mL (≈ 23.6 µM)

Fc1ccccc1-c1cc(CN2CCN(c3ccccc3C(F)(F)F)CC2)c2cnc3cc(Cl)ccc3n12
inhibition of growth at 10 µg/mL [2]: ≥ 90% | MIC90 [3]: > 50 µg/mL | solubility [4]: < 2.5 µg/mL

CCCNCc1cc(-c2ccccc2F)n2c1cnc1cc(Cl)ccc12
inhibition at 48 h [5]: 73.7% | inhibition at 48 h [6]: 74.5% | inhibition [1]: 24.8% | inhibition of growth at 10 µg/mL [2]: ≥ 90% | MIC90 [3]: 10 µg/mL (≈ 27.2 µM) | inhibition at 48 h [7]: 77% | solubility [4]: 17.5 µg/mL (≈ 47.6 µM)

Fc1ccccc1-c1cc(CNCCc2ccc(Br)cc2)c2cnc3ccccc3n12
inhibition at 48 h [5]: 72.3% | inhibition at 48 h [6]: 76.1% | inhibition [1]: 17.3% | inhibition of growth at 10 µg/mL [2]: ≥ 90% | MIC90 [3]: 5 µg/mL (≈ 10.5 µM) | inhibition at 48 h [7]: 69.3% | solubility [4]: < 2.5 µg/mL

Fc1ccccc1-c1cc(CNCCc2ccc(Br)cc2)c2cnc3cc(Cl)ccc3n12
inhibition at 48 h [5]: 40.1% | inhibition at 48 h [6]: 70.5% | inhibition [1]: 64.9% | inhibition of growth at 10 µg/mL [2]: ≥ 90% | MIC90 [3]: 5 µg/mL (≈ 9.83 µM) | inhibition at 48 h [7]: 71.8% | IC50 [8]: 48 µM | solubility [4]: < 2.5 µg/mL

Fc1ccccc1-c1cc(CNCc2c(F)cccc2Cl)c2cnc3ccccc3n12
inhibition of growth at 10 µg/mL [2]: ≥ 90% | MIC90 [3]: > 50 µg/mL | solubility [4]: 20.8 µg/mL (≈ 48 µM)

Fc1ccccc1-c1cc(CNCc2c(F)cccc2Cl)c2cnc3cc(Cl)ccc3n12
inhibition of growth at 10 µg/mL [2]: ≥ 90% | MIC90 [3]: > 50 µg/mL | solubility [4]: < 2.5 µg/mL

Fc1ccccc1-c1cc(CN2CCOCC2)c2cnc3cc(Cl)ccc3n12
inhibition of growth at 10 µg/mL [2]: ≥ 90% | MIC90 [3]: > 50 µg/mL | solubility [4]: < 2.5 µg/mL

COc1ccc(CCNCc2cc(-c3ccccc3F)n3c2cnc2cc(Cl)ccc23)cc1OC
inhibition at 48 h [5]: 53.5% | inhibition at 48 h [6]: 76.4% | inhibition [1]: 40.4% | inhibition of growth at 10 µg/mL [2]: ≥ 90% | MIC90 [3]: 5 µg/mL (≈ 10.2 µM) | inhibition at 48 h [7]: 84.4% | Papp at 18 h, 50 ug/mL [9]: 9.39 ×10⁻⁶ cm/s | solubility at 180 µM [10]: 90 µg/mL (≈ 184 µM)

CC(C)NCc1cc(-c2ccccc2F)n2c1cnc1cc(Cl)ccc12
inhibition at 48 h [5]: 76.4% | inhibition at 48 h [6]: 71.7% | inhibition [1]: 27.4% | inhibition of growth at 10 µg/mL [2]: ≥ 90% | MIC90 [3]: 10 µg/mL (≈ 27.2 µM) | inhibition at 48 h [7]: 76.4% | solubility [4]: 33.2 µg/mL (≈ 90.1 µM)

CCCCNCc1cc(-c2ccccc2F)n2c1cnc1cc(Br)ccc12
inhibition at 48 h [5]: 68.7% | inhibition at 48 h [6]: 70.8% | inhibition [1]: 50.2% | inhibition of growth at 10 µg/mL [2]: ≥ 90% | MIC90 [3]: 10 µg/mL (≈ 23.5 µM) | inhibition at 48 h [7]: 66.3% | solubility [4]: 6.74 µg/mL (≈ 15.8 µM)

CCN(CC)Cc1cc(-c2ccccc2F)n2c1cnc1ccccc12
inhibition of growth at 10 µg/mL [2]: ≥ 90% | MIC90 [3]: > 50 µg/mL

CCCCNCc1cc(-c2ccccc2F)n2c1cnc1cc(Cl)ccc12
inhibition at 48 h [5]: 73.7% | inhibition at 48 h [6]: 74.5% | inhibition [1]: 33.3% | inhibition of growth at 10 µg/mL [2]: ≥ 90% | MIC90 [3]: 10 µg/mL (≈ 26.2 µM) | inhibition at 48 h [7]: 75.9% | solubility [4]: 20 µg/mL (≈ 52.3 µM)

CCN(CC)Cc1cc(-c2ccccc2F)n2c1cnc1cc(Cl)ccc12
inhibition of growth at 10 µg/mL [2]: ≥ 90% | MIC90 [3]: 10 to 50 µg/mL (≈ 26.2 to 131 µM)

CCN(Cc1ccccc1)Cc1cc(-c2ccccc2F)n2c1cnc1cc(Cl)ccc12
inhibition of growth at 10 µg/mL [2]: ≥ 90% | MIC90 [3]: > 50 µg/mL | solubility [4]: < 2.5 µg/mL

CCCCNCc1cc(-c2ccccc2F)n2c1cnc1ccccc12
inhibition [1]: 14.4% | inhibition of growth at 10 µg/mL [2]: ≥ 90% | MIC90 [3]: 10 to 50 µg/mL (≈ 28.8 to 144 µM) | solubility [4]: 120 µg/mL (≈ 346 µM)

CC(C)NCc1cc(-c2ccccc2F)n2c1cnc1ccccc12
inhibition [1]: 17.3% | inhibition of growth at 10 µg/mL [2]: ≥ 90% | MIC90 [3]: 10 to 50 µg/mL (≈ 30 to 150 µM) | solubility [4]: 70.5 µg/mL (≈ 212 µM)

Fc1ccccc1-c1cc(CNCc2ccccc2)c2cnc3ccccc3n12
inhibition [1]: 22.1% | inhibition of growth at 10 µg/mL [2]: ≥ 90% | MIC90 [3]: 10 to 50 µg/mL (≈ 26.2 to 131 µM) | solubility [4]: 21.1 µg/mL (≈ 55.3 µM)

Fc1ccc2c(c1)ncc1c(CNCc3ccccc3)cc(-c3ccccc3F)n12
inhibition at 48 h [5]: 20.1% | inhibition at 48 h [6]: -8.04% | inhibition [1]: 48.5% | inhibition of growth at 10 µg/mL [2]: ≥ 90% | MIC90 [3]: 10 µg/mL (≈ 25 µM) | inhibition at 48 h [7]: -7.09% | solubility [4]: 4.9 µg/mL (≈ 12.3 µM)
